deltaTm and IC50 data for 17 compounds are collected here from ChEMBL document CHEMBL4828765, “Design and Development of a Chemical Probe for Pseudokinase Ca2+/calmodulin-Dependent Ser/Thr Kinase” (J Med Chem, 2021).

Bounds are passed on as bounds.

One test is filed under the species Homo sapiens. Nature of the test: Binding affinity to MERTK-AXL mutant (unknown origin) expressed in Escherichia coli Rosetta cells assessed as change in melting temperature by SYPRO orange dye based DSF assay.
In test [1] the target is T1, Tyrosine-protein kinase Mer (Homo sapiens) (UniProt Q12866).
T1 sequence (whole entry): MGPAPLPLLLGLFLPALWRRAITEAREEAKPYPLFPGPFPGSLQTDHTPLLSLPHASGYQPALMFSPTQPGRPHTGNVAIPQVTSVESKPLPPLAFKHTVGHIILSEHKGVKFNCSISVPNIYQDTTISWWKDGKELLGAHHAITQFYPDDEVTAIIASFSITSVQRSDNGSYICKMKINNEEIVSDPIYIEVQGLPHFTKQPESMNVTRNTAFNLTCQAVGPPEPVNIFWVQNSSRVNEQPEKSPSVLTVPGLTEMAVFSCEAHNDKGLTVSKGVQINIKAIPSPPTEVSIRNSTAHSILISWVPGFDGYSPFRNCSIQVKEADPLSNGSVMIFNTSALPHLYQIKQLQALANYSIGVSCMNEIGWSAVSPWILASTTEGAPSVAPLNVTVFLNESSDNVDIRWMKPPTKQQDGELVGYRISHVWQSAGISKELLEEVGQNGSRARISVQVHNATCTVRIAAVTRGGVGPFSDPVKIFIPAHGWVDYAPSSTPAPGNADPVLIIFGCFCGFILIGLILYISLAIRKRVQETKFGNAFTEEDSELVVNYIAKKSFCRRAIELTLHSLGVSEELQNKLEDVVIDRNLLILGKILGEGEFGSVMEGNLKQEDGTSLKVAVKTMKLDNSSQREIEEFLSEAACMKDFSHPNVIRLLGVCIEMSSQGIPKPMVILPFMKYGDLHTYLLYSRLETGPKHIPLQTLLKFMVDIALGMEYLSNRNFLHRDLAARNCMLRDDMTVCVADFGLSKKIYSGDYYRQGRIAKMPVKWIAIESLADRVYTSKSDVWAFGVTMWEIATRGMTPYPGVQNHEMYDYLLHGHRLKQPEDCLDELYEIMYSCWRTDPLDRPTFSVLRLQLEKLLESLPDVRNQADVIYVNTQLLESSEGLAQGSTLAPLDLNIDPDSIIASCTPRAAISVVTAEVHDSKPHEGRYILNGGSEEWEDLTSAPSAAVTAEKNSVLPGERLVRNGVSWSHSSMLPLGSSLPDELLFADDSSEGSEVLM
The test is described as follows: Binding affinity to MERTK (571 to 864 residue) (unknown origin) expressed in Escherichia coli Rosetta cells assessed as change in melting temperature by SYPRO orange dye based DSF assay.

Test [2] has as its target T2, Peripheral plasma membrane protein CASK (Homo sapiens) (UniProt O14936).
T2 sequence (whole entry): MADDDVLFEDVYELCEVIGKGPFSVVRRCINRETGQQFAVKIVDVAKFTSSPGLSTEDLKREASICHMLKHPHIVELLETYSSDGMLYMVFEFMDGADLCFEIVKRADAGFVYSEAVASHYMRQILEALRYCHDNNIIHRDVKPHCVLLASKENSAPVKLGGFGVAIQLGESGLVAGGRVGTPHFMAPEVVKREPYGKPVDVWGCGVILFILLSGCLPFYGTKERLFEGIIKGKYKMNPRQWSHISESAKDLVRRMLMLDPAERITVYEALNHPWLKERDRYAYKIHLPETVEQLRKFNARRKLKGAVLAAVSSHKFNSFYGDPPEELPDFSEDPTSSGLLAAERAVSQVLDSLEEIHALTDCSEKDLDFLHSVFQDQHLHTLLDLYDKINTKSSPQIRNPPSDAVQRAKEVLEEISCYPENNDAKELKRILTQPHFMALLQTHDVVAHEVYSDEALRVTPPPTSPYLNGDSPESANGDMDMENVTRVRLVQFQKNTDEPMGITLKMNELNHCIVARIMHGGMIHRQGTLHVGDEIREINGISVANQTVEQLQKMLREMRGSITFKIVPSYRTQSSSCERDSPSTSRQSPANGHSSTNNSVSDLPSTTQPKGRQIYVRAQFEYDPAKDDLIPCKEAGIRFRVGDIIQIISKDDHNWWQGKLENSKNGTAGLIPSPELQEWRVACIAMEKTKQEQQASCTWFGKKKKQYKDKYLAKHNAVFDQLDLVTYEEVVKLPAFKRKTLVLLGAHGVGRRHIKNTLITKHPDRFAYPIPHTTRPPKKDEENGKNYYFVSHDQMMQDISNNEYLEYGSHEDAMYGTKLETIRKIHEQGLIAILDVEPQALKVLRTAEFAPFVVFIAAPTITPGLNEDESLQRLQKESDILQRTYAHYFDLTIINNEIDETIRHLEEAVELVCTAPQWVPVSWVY
Description: Binding affinity to recombinant N-terminal His-tagged CASK (1 to 337 residues) (unknown origin) expressed in Escherichia coli assessed as change in melting temperature by SYPRO orange dye based DSF assay

Test [3] has as its target Tyrosine-protein kinase ABL1 (Homo sapiens, UniProt P00519).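 Further: thermal shift of non-phosphorylated ABL1 protein measured by differential scanning fluorimetry with SYPRO Orange dye.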
Description: Binding affinity to non-phosphorylated ABL1 (unknown origin) assessed as change in melting temperature by SYPRO orange dye based DSF assay
The target in test [4] is Casein kinase I isoform epsilon (Homo sapiens, UniProt P49674). The test is described as follows: Binding affinity to CSNK1E (unknown origin) assessed as change in melting temperature by SYPRO orange dye based DSF assay.
In test [5] the target is T3, Tyrosine-protein kinase receptor TYRO3 (Homo sapiens, UniProt Q06418).
T3 sequence (Q06418 whole entry): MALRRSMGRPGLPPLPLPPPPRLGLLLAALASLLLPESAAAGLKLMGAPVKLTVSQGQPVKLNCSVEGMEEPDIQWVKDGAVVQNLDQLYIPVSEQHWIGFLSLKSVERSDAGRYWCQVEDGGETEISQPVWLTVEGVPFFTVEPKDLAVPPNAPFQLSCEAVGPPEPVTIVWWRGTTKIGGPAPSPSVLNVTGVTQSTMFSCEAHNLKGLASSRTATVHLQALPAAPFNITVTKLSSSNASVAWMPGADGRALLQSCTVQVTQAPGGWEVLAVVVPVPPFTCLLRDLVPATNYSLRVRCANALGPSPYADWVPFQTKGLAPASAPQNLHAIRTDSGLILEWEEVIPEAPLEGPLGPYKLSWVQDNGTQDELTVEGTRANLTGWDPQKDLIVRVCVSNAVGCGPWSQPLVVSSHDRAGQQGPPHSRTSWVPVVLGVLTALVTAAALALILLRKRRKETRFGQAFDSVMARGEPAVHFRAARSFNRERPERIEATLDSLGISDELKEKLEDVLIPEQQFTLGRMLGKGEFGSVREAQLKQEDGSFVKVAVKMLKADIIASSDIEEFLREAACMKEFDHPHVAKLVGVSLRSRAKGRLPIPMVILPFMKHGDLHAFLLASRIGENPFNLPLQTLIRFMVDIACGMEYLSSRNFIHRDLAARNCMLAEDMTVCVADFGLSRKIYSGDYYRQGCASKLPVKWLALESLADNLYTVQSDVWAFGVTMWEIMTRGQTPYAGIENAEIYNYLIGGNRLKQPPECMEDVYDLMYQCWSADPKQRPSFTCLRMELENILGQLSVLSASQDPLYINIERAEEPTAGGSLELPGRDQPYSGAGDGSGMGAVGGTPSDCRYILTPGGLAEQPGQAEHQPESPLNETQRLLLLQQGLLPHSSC
Nature of the test: Inhibition of tracer K5 binding to NanoLuc-fused TYRO3 (unknown origin) expressed in HEK293T cells measured after 2 hrs by NanoBRET assay. The test is classed as cell-based. In general terms: BRET reads energy transfer from a luciferase to a nearby fluorophore.

Test [6] has as its target T4, Tyrosine-protein kinase Mer (Homo sapiens, UniProt Q12866).
T4 sequence (Q12866 whole entry): T1 sequence (whole entry)
Nature of the test: Inhibition of tracer K5 binding to NanoLuc-fused MERTK (unknown origin) expressed in HEK293T cells measured after 2 hrs by NanoBRET assay. The class given is cell-based.

Tyrosine-protein kinase ABL1, sequence (P00519 whole entry, canonical isoform): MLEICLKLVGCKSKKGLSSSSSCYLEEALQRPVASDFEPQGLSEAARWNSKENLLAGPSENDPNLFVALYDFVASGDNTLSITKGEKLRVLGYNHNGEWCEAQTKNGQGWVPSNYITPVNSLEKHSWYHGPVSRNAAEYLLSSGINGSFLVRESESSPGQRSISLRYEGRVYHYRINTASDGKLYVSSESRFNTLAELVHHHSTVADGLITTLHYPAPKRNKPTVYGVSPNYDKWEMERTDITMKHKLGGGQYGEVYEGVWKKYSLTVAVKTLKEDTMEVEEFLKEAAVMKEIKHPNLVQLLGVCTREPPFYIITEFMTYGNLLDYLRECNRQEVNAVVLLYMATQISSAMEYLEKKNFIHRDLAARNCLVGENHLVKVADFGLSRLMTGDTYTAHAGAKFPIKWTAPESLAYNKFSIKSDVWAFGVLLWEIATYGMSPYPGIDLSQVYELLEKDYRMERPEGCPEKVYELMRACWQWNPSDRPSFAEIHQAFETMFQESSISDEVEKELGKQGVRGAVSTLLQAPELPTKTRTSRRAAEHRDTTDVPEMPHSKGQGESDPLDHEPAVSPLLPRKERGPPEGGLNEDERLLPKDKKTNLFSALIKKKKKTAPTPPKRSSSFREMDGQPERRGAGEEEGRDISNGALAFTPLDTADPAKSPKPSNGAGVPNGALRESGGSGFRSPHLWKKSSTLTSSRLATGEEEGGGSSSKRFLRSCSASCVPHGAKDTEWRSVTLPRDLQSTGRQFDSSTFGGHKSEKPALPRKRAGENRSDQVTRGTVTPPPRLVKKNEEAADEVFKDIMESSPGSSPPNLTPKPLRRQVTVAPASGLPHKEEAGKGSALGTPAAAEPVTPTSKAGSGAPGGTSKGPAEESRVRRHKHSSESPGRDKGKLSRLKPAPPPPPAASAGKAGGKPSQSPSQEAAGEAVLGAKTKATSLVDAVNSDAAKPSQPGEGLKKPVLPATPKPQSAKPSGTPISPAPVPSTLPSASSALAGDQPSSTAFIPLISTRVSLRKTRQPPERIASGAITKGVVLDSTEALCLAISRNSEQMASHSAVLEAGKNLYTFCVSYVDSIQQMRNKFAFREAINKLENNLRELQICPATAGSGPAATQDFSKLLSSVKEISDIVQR
Casein kinase I isoform epsilon, sequence (P49674 whole entry, looked up, canonical isoform): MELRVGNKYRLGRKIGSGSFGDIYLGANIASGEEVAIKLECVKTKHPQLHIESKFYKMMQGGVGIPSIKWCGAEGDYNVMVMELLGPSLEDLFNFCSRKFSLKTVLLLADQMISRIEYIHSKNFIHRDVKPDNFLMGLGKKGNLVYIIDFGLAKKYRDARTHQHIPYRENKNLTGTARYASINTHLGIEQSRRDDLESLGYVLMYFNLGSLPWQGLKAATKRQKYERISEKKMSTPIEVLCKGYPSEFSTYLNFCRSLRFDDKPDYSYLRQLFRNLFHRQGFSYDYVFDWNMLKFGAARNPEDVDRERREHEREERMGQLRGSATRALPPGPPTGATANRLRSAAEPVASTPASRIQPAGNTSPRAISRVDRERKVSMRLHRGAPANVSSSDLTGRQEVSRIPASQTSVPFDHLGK

For the compound `O=C(NCCCN1CCCC1=O)c1cnc(NCc2ccc(Br)cc2)nc1NC1CCCC1`, the deltaTm in the test listed under Homo sapiens was 0 K; in test [1], -0.1 K; in test [2] it was 1.2 K; in test [3] it was 6.8 K; in test [4], 2.2 K.
As for `O=C(NCCCN1CCCC1=O)c1cnc(NCc2cc(Cl)ccc2Cl)nc1Nc1ccccc1`, the deltaTm in the test filed under Homo sapiens was -0.3 K; in test [1], -0.7 K; in test [2] it was 1.4 K; in test [3], 2.9 K; in test [4], 3.6 K.
On the same counts, the results for `O=C(NCCCN1CCCC1=O)c1cnc(NCc2ccccc2Br)nc1NC1CCCC1` are -0.1 K, -0.5 K, 4.8 K, 7 K and 4.4 K.
On to `CN[C@@H]1C[C@H]2O[C@@](C)([C@@H]1OC)n1c3ccccc3c3c4c(c5c6ccccc6n2c5c31)C(=O)NC4`, for which the deltaTm in test [1] was 4.8 K; in test [4], 2.3 K.
`COc1ccc(OC)c(CNc2ncc(C(=O)NCCCN3CCCC3=O)c(NC3CCCC3)n2)c1`: the deltaTm in the test listed under Homo sapiens is -0.2 K; in test [1], -0.5 K; in test [2], 0.8 K; in test [3], 0.7 K; in test [4], 0.4 K.
Take `O=C(NCCCN1CCCC1=O)c1cnc(NCc2cc(Cl)ccc2Cl)nc1NC1CCCCC1`: the deltaTm is 0.1 K in the test filed under Homo sapiens; -0.2 K in test [1]; 5.7 K in test [2]; 7.7 K in test [3]; 5 K in test [4].
`Cc1ccc(CNc2ncc(C(=O)NCCCN3CCOC3=O)c(NC3CCCC3)n2)c(Br)c1`: the deltaTm in the test listed under Homo sapiens was -0.1 K; in test [1] it was -0.2 K; in test [2] it was 6.1 K; in test [3], 5.8 K; in test [4], 0.1 K.
Consider `O=C(NCCCN1CCCC1=O)c1cnc(NCc2ccccc2Cl)nc1NC1CCCC1`, for which the deltaTm in the test listed under Homo sapiens was -0.2 K; in test [1], -0.1 K; in test [2], 3.3 K; in test [3], 5.9 K; in test [4], 4.8 K.
`O=C(NCCCN1CCCC1=O)c1cnc(NCc2cccc(Br)c2)nc1NC1CCCC1`: the deltaTm in the test filed under Homo sapiens was found to be 0.3 K; in test [1], 0.6 K; in test [2], 3.8 K; in test [3], 6.9 K; in test [4], 6.5 K.
On the same counts, the results for `O=C(NCCCN1CCCC1=O)c1cnc(NCc2ccccc2)nc1NC1CCCC1` are 0.4 K, 0.5 K, 0.8 K, 4.5 K and 4.3 K.
On the same counts, the results for `O=C(NCCCN1CCCC1=O)c1cnc(NCc2cc(Cl)ccc2Cl)nc1NC1CC1` are -0.2 K, -0.4 K, 1.4 K, 4.9 K and 4 K.
Regarding `O=C(NCCCN1CCCC1=O)c1cnc(NCc2cc(Br)ccc2Br)nc1NC1CCCC1`, the deltaTm in the test filed under Homo sapiens was 0.2 K; in test [1], -0.7 K; in test [3], 6.3 K; in test [4] it was 4.4 K.
Usually IC50 stands for the concentration at which inhibition is half-maximal. In turn, `CCN(Cc1ccccc1)c1ncc(C(=O)NCCCN2CCCC2=O)c(NC2CCCC2)n1` had a concentration for half-maximal inhibition (IC50) in test [5] above 10 µM.
In the case of `O=C(NCCCN1CCOC1=O)c1cnc(NCc2cc(Br)ccc2Br)nc1NC1CCCC1`, the deltaTm is 0.2 K in the test filed under Homo sapiens; -0.6 K in test [1]; 5.1 K in test [2]; 6 K in test [3]; 3.6 K in test [4].
For `O=C(NCCCN1CCCC1=O)c1cnc(NCc2cc(F)ccc2F)nc1NC1CCCC1`, the deltaTm came out at 0.3 K in the test listed under Homo sapiens, 0.6 K in test [1], 6.1 K in test [3] and 5.9 K in test [4]. In test [6], this compound registered an IC50 of 4.48 µM.
As for `O=C(NCCCN1CCCC1=O)c1cnc(NCc2cc(Cl)ccc2Cl)nc1NC1CCCC1`, the deltaTm in the test listed under Homo sapiens is -0.2 K; in test [1] it was -0.7 K; in test [3], 6 K; in test [4], 4.8 K.
For `Cc1ccc(CNc2ncc(C(=O)NCCCN3CCOC3=O)c(NC3CCCCC3)n2)c(Br)c1`, the deltaTm in the test filed under Homo sapiens was -0.1 K; in test [1], 0.7 K; in test [2] it was 6 K; in test [3], 6.2 K; in test [4], 1.5 K.
